{"source": "patent US7396839B2", "about": "“Crystalline forms of gatifloxacin” (Teva Pharmaceuticals USA, Inc., priority 2002, dated 2008)", "key": {"[1]": {"assay": "storage at ambient temperature and pressure (crystalline form conversion)", "assay_type": "physicochemical"}, "[2]": {"assay": "heating of the crystalline form at about 50° C.", "assay_type": "physicochemical", "conditions": "heating at about 50° C."}, "[3]": {"conditions": "among the forms of U.S. Pat. No. 6,413,969; cited from earlier work"}, "[4]": {"conditions": "room temperature; among the forms of U.S. Pat. No. 6,413,969; cited from earlier work"}, "[5]": {"conditions": "compared with the hemihydrate; cited from earlier work"}, "[6]": {"conditions": "prolonged (e.g. 2 months) storage at ambient temperature and pressure"}}, "data": [{"molecule": "COc1c(N2CCNC(C)C2)c(F)cc2c(=O)c(C(=O)O)cn(C3CC3)c12", "note": "(racemic) [form L, (±) 1-cyclopropyl-6-fluoro-1,4-dihydro-8-methoxy-7-(3-methyl-1-piperazinyl)-4-oxo-3-quinolinecarboxylic acid]", "values": [{"measurement": "crystalline form after prolonged storage", "setting": "[1]; [6]", "value": "converts to form Ω"}]}, {"molecule": "COc1c(N2CCNC(C)C2)c(F)cc2c(=O)c(C(=O)O)cn(C3CC3)c12", "note": "(racemic) [form M, (±) 1-cyclopropyl-6-fluoro-1,4-dihydro-8-methoxy-7-(3-methyl-1-piperazinyl)-4-oxo-3-quinolinecarboxylic acid]", "values": [{"measurement": "crystalline form after prolonged storage", "setting": "[1]; [6]", "value": "converts to form T2RP (hemihydrate)"}]}, {"molecule": "COc1c(N2CCNC(C)C2)c(F)cc2c(=O)c(C(=O)O)cn(C3CC3)c12", "note": "(racemic) [form P, (±) 1-cyclopropyl-6-fluoro-1,4-dihydro-8-methoxy-7-(3-methyl-1-piperazinyl)-4-oxo-3-quinolinecarboxylic acid]", "values": [{"measurement": "crystalline form after heating", "setting": "[2]", "value": "results in gatifloxacin form T1"}, {"measurement": "crystalline form after prolonged storage", "setting": "[1]; prolonged (e.g. 1 month) storage at ambient temperature and pressure", "value": "converts to gatifloxacin sesquihydrate"}]}, {"molecule": "COc1c(N2CCNC(C)C2)c(F)cc2c(=O)c(C(=O)O)cn(C3CC3)c12", "note": "(stereo not shown) [pentahydrate, gatifloxacin]", "values": [{"measurement": "thermodynamic stability", "setting": "[3]", "value": "most thermodynamically stable form"}, {"measurement": "aqueous solubility", "setting": "[4]", "value": "lowest"}]}, {"molecule": "COc1c(N2CCNC(C)C2)c(F)cc2c(=O)c(C(=O)O)cn(C3CC3)c12", "note": "(stereo not shown) [sesquihydrate, gatifloxacin]", "values": [{"measurement": "stability in manufacturing", "setting": "[5]", "value": "more stable"}]}]}
